Experimental data as given in the supplement of paper PMC4862054.

Tested on: DU-4475
Experiment: drug sensitivity score (DSS), CellTiter-Blue viability (DSS (AUC-based score)); higher = stronger viability inhibition; extreme values may be limits of the assay
Conditions: incubation time: 72 h
Protocol: (§1)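 DSRT with the CellTiter-Blue (resazurin reduction) viability readout, fluorescence 560/590 nm, 72 h incubation. Plates were normalised to DMSO and benzethonium chloride controls. DSS is computed from the area under the fitted dose-response curve (5 or 9 concentrations).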

| Compound | drug sensitivity score |
| --- | --- |
| Cn1c(CCCC(=O)O)nc2cc(N(CCCl)CCCl)ccc21 [Bendamustine] | 0 |
| COc1cc2nccc(Oc3ccc(NC(=O)C4(C(=O)Nc5ccc(F)cc5)CC4)cc3)c2cc1OC [Cabozantinib] | 0 |
| O=C1CCC(N2C(=O)c3ccccc3C2=O)C(=O)N1 (configuration not stated) [Thalidomide] | 0 |
| C=C(c1ccc(C(=O)O)cc1)c1cc2c(cc1C)C(C)(C)CCC2(C)C [Bexarotene] | 0 |
| CCC1(c2ccc(N)cc2)CCC(=O)NC1=O (configuration not stated) [Aminoglutethimide] | 0 |
| Clc1ccc(Nc2nnc(Cc3ccncc3)c3ccccc23)cc1 [Vatalanib] | 0 |
| NCC(=O)CCC(=O)O [Aminolevulinic acid] | 0 |
| CCN(CCCOc1ccc2c(Nc3cc(CC(=O)Nc4cccc(F)c4)[nH]n3)ncnc2c1)CCOP(=O)(O)O [Barasertib] | 4.75 |
| CO[C@H]1/C=C\C=C(/C)C(=O)NC2=CC(=O)C(NCCN(C)C)=C(C[C@@H](C)C[C@H](OC)[C@H](O)[C@@H](C)/C=C(\C)[C@@H]1OC(N)=O)C2=O [Alvespimycin] | 21.9 |
| NC(=O)Nc1cc(-c2cccc(F)c2)sc1C(=O)N[C@H]1CCCNC1 [AZD 7762] | 2.46 |

Tested on: CAL-120
Experiment: as above
Conditions: incubation time: 72 h
Protocol: as §1

| Compound | drug sensitivity score |
| --- | --- |
| Cn1c(CCCC(=O)O)nc2cc(N(CCCl)CCCl)ccc21 [Bendamustine] | 0 |
| COc1cc2nccc(Oc3ccc(NC(=O)C4(C(=O)Nc5ccc(F)cc5)CC4)cc3)c2cc1OC [Cabozantinib] | 0 |
| O=C1CCC(N2C(=O)c3ccccc3C2=O)C(=O)N1 (configuration not stated) [Thalidomide] | 0 |
| C=C(c1ccc(C(=O)O)cc1)c1cc2c(cc1C)C(C)(C)CCC2(C)C [Bexarotene] | 0 |
| CCC1(c2ccc(N)cc2)CCC(=O)NC1=O (configuration not stated) [Aminoglutethimide] | 0 |
| Clc1ccc(Nc2nnc(Cc3ccncc3)c3ccccc23)cc1 [Vatalanib] | 0 |
| NCC(=O)CCC(=O)O [Aminolevulinic acid] | 0 |
| CCN(CCCOc1ccc2c(Nc3cc(CC(=O)Nc4cccc(F)c4)[nH]n3)ncnc2c1)CCOP(=O)(O)O [Barasertib] | 8.21 |
| CO[C@H]1/C=C\C=C(/C)C(=O)NC2=CC(=O)C(NCCN(C)C)=C(C[C@@H](C)C[C@H](OC)[C@H](O)[C@@H](C)/C=C(\C)[C@@H]1OC(N)=O)C2=O [Alvespimycin] | 15.3 |
| NC(=O)Nc1cc(-c2cccc(F)c2)sc1C(=O)N[C@H]1CCCNC1 [AZD 7762] | 2.17 |

Tested on: CAL-51
Experiment: as above
Conditions: incubation time: 72 h
Protocol: as §1

| Compound | drug sensitivity score |
| --- | --- |
| Cn1c(CCCC(=O)O)nc2cc(N(CCCl)CCCl)ccc21 [Bendamustine] | 0 |
| COc1cc2nccc(Oc3ccc(NC(=O)C4(C(=O)Nc5ccc(F)cc5)CC4)cc3)c2cc1OC [Cabozantinib] | 0 |
| O=C1CCC(N2C(=O)c3ccccc3C2=O)C(=O)N1 (configuration not stated) [Thalidomide] | 0 |
| C=C(c1ccc(C(=O)O)cc1)c1cc2c(cc1C)C(C)(C)CCC2(C)C [Bexarotene] | 0 |
| CCC1(c2ccc(N)cc2)CCC(=O)NC1=O (configuration not stated) [Aminoglutethimide] | 0 |
| Clc1ccc(Nc2nnc(Cc3ccncc3)c3ccccc23)cc1 [Vatalanib] | 0 |
| NCC(=O)CCC(=O)O [Aminolevulinic acid] | 0 |
| CCN(CCCOc1ccc2c(Nc3cc(CC(=O)Nc4cccc(F)c4)[nH]n3)ncnc2c1)CCOP(=O)(O)O [Barasertib] | 8.86 |
| CO[C@H]1/C=C\C=C(/C)C(=O)NC2=CC(=O)C(NCCN(C)C)=C(C[C@@H](C)C[C@H](OC)[C@H](O)[C@@H](C)/C=C(\C)[C@@H]1OC(N)=O)C2=O [Alvespimycin] | 14 |
| NC(=O)Nc1cc(-c2cccc(F)c2)sc1C(=O)N[C@H]1CCCNC1 [AZD 7762] | 2.84 |

Tested on: MDA-MB-231
Experiment: as above
Conditions: incubation time: 72 h
Protocol: as §1

| Compound | drug sensitivity score |
| --- | --- |
| Cn1c(CCCC(=O)O)nc2cc(N(CCCl)CCCl)ccc21 [Bendamustine] | 0 |
| COc1cc2nccc(Oc3ccc(NC(=O)C4(C(=O)Nc5ccc(F)cc5)CC4)cc3)c2cc1OC [Cabozantinib] | 0 |
| O=C1CCC(N2C(=O)c3ccccc3C2=O)C(=O)N1 (configuration not stated) [Thalidomide] | 0 |
| C=C(c1ccc(C(=O)O)cc1)c1cc2c(cc1C)C(C)(C)CCC2(C)C [Bexarotene] | 0 |
| CCC1(c2ccc(N)cc2)CCC(=O)NC1=O (configuration not stated) [Aminoglutethimide] | 0 |
| Clc1ccc(Nc2nnc(Cc3ccncc3)c3ccccc23)cc1 [Vatalanib] | 0 |
| NCC(=O)CCC(=O)O [Aminolevulinic acid] | 0 |
| CCN(CCCOc1ccc2c(Nc3cc(CC(=O)Nc4cccc(F)c4)[nH]n3)ncnc2c1)CCOP(=O)(O)O [Barasertib] | 3.7 |
| CO[C@H]1/C=C\C=C(/C)C(=O)NC2=CC(=O)C(NCCN(C)C)=C(C[C@@H](C)C[C@H](OC)[C@H](O)[C@@H](C)/C=C(\C)[C@@H]1OC(N)=O)C2=O [Alvespimycin] | 12.2 |
| NC(=O)Nc1cc(-c2cccc(F)c2)sc1C(=O)N[C@H]1CCCNC1 [AZD 7762] | 1.83 |

Tested on: CAL-148
Experiment: as above
Conditions: incubation time: 72 h
Protocol: as §1

| Compound | drug sensitivity score |
| --- | --- |
| Cn1c(CCCC(=O)O)nc2cc(N(CCCl)CCCl)ccc21 [Bendamustine] | 0 |
| COc1cc2nccc(Oc3ccc(NC(=O)C4(C(=O)Nc5ccc(F)cc5)CC4)cc3)c2cc1OC [Cabozantinib] | 0.402 |
| O=C1CCC(N2C(=O)c3ccccc3C2=O)C(=O)N1 (configuration not stated) [Thalidomide] | 0 |
| C=C(c1ccc(C(=O)O)cc1)c1cc2c(cc1C)C(C)(C)CCC2(C)C [Bexarotene] | 1.2 |
| CCC1(c2ccc(N)cc2)CCC(=O)NC1=O (configuration not stated) [Aminoglutethimide] | 0 |
| Clc1ccc(Nc2nnc(Cc3ccncc3)c3ccccc23)cc1 [Vatalanib] | 0 |
| NCC(=O)CCC(=O)O [Aminolevulinic acid] | 0 |
| CCN(CCCOc1ccc2c(Nc3cc(CC(=O)Nc4cccc(F)c4)[nH]n3)ncnc2c1)CCOP(=O)(O)O [Barasertib] | 20.5 |
| CO[C@H]1/C=C\C=C(/C)C(=O)NC2=CC(=O)C(NCCN(C)C)=C(C[C@@H](C)C[C@H](OC)[C@H](O)[C@@H](C)/C=C(\C)[C@@H]1OC(N)=O)C2=O [Alvespimycin] | 16.9 |
| NC(=O)Nc1cc(-c2cccc(F)c2)sc1C(=O)N[C@H]1CCCNC1 [AZD 7762] | 2.2 |

Tested on: CAL-85-1
Experiment: as above
Conditions: incubation time: 72 h
Protocol: as §1

| Compound | drug sensitivity score |
| --- | --- |
| Cn1c(CCCC(=O)O)nc2cc(N(CCCl)CCCl)ccc21 [Bendamustine] | 0 |
| COc1cc2nccc(Oc3ccc(NC(=O)C4(C(=O)Nc5ccc(F)cc5)CC4)cc3)c2cc1OC [Cabozantinib] | 0 |
